Test results published in patent US5130303A, “Drug effect-enhancing agent for antitumor drug” (Nissan Chemical Industries Ltd., priority 1988, dated 1992).
Values after ≈ are worked out from the molar mass of the structure shown.

Experiments:
cancer cells = settings: literature; cited from earlier work
KB-C2 = assay: in vitro chemosensitivity test, MTT colorimetric assay with vincristine (Test Example 1, Table 1); type: cell-based; settings: Homo sapiens, KB-C2, 96 h, read-out: IC50 of vincristine without a sample
Method: MTT colorimetric assay performed in a 96-well plate was used for an in vitro chemosensitivity test. The assay is dependent on the reduction of MTT by the mitochondrial dehydrogenase of viable cells to a blue formazan product which can be measured spectrophotometrically. Equal numbers of cells (2,000 for KB-3-1 and 5,000 for KB-C2) were inoculated into each well with […] of culture medium. After overnight incubation (37° C., 5% CO2), 20 μl of vincristine solution and 0.5 μl of sample solution were added and incubated for 4 days. Then, 50 μl of MTT (1.1 mg/ml PBS) was added to each well and incubated for further 4 hours. The resulting formazan was dissolved with 100 μl of DMSO after aspiration of the culture medium. Plates were placed on a plate shaker for 5 minutes and read immediately at 570 nm. IC50 (mg/ml) with a tested sample 10 μM is given in Table 1; and IC50 of vincristine without a sample was 5,000 ng/ml.
MTT: 3-(4,5-dimethylthiazol-2-yl)-2,5-diphenyltetrazolium bromide
MEM: minimum essential medium

SMILES | effect on multidrug resistance / antitumor drug effects (cancer cells) | IC50 (KB-C2) [µg/mL]
COc1ccc(CCN(C)CCCC(C#N)(c2ccc(OC)c(OC)c2)C(C)C)cc1OC (stereo not shown) [Verapamil] | overcomes the multidrug resistance against antitumor drugs | 
COc1ccc([C@@H]2Sc3ccccc3N(CCN(C)C)C(=O)[C@@H]2OC(C)=O)cc1 [diltiazem] | enhances the drug effects of vincristine (VCR) | 
COC(=O)C1=C(C)NC(C)=C(C(=O)OCCN(C)Cc2ccccc2)C1c1cccc([N+](=O)[O-])c1 (stereo not shown) [nicardipin] | enhances the antitumor activities of vindecine sulfate | 
CC[C@]1(O)C[C@H]2CN(CCc3c([nH]c4ccccc34)[C@@](C(=O)OC)(c3cc4c(cc3OC)N(C=O)[C@H]3[C@@](O)(C(=O)OC)[C@H](OC(C)=O)[C@]5(CC)C=CCN6CC[C@]43[C@@H]65)C2)C1 [vincristine] |  | 5 (≈ 6.06 µM)
